# Data: PMC10119930, “Dual Molecules Targeting 5-HT6 and GABA-A Receptors as a New Approach to Combat Depression Associated with Neuroinflammation” (ACS Chemical Neuroscience, 2023)
# Where “and” joins values, the source holds several entries; their conditions need not be identical. Equal entries are not always repeated. Where two headings read alike, the source gives them in different places.
# What was measured:
# [1] = target: T1, 5-HT6 receptor (Homo sapiens, UniProt P50406); test: Radioligand binding assay for 5-HT6 receptor ([3H]-LSD displacement); parameters: expressed in transfected cells; host or cells: HEK-293 (cryopreserved membranes); conditions: for Ki: competitive replacement of [3H]-LSD, ±S.E.M.
# Procedure: To determine the affinity for 5-HT6, the cryopreserved membranes from HEK-293 cells stably transfected with the human recombinant 5-HT6 receptor were used.[40] Preparation of the tested compounds included preparation of stock solutions in DMSO (1 mM) and subsequent serial dilutions (10^–10–10^–5 M) of tested compounds in the appropriate buffer (50 mM Tris buffer, pH 7.4, 10 mM MgCl2, 0.5 mM ethylenediaminetetraacetic acid). The serial dilutions were acquired directly on a 96-well microplate. The reaction mix included 50 μL of appropriate concentration of tested molecule, 50 μL of [^3H]LSD 2.5/2.0 nM, and 150 μL of diluted membranes. The microplate containing the reaction mix was protected with a sealing tape and incubated for 60 min at 37 °C. Quenching of the reaction mixtire included: rapid filtration through UniFilter 96 GF/B filter microplate and rapid washes using 200 μL 50 mM assay buffer and vacuum manifold and 96-well pipettor. The collected microplates were dried overnight at 37 °C. The UniFilter bottoms were sealed, and then 30 μL of Betaplate Scint liquid scintillator (PerkinElmer) was added to each well. […] The obtained data were fit to a one-site curve-fitting equation using Prism 5 software (GraphPad Software), and the Ki values were determined using the Cheng–Prusoff equation. Radioligand binding was performed in duplicates.
# [2] = target: muscimol site of the GABA-A receptor; test: Radioligand binding assay for GABA-A receptor ([3H]muscimol displacement, rat brain homogenate); conditions: competitive replacement of [3H]muscimol; ±S.E.M.
# Procedure: The study was acquired according to the earlier protocols.[39] The rats’ brains were homogenized and prepared accurately according to the previous protocol.[39] On the day of the study, brain homogenates were thawed at room temperature and “diluted” in 20 volumes of ice-cold 50 mM Tris-HCl buffer (pH 7.4) and centrifuged (20.000g, 30 min, 0–4 °C). The assay was performed directly on 96-well microplates, which contained 50 mM Tris-HCl buffer (pH 7.4) in a total volume of 300 μL. Reaction mix included 240 μL of the brain tissue suspension, 30 μL of [^3H]-muscimol, and 30 μL solution of tested compounds (administrated at various concentrations: 10^–10–10^–5 M). […] The 96-well microplates containing the reaction mix were incubated for 10 min at 0 °C, followed by rapid filtration over glass fiber filters FilterMate B (PerkinElmer, USA) using the Harvester-96 MACH III FM (Tomtec, USA). The filter mats were dried using a microwave and then placed inside a plastic bag (PerkinElmer, USA). After that, they were soaked in 10 mL of Ultima Gold MV liquid scintillation cocktail (PerkinElmer, USA). […] Ki values were estimated according to the Cheng and Prusoff equation. The study was performed in duplicates. The statistical analysis was performed using (GraphPad Prism, version 4.0, San Diego, CA, USA).
# [3] = target: T1, 5-HT6 receptor; test: Functional assay for 5-HT6 receptor, antagonist mode (aequorin, CHO-K1 cells); type: cell-based; parameters: expressed in transfected cells; host or cells: CHO-K1 (co-expressing mitochondrially targeted aequorin and G protein α16); conditions: ±S.E.M., read-out: 5-HT6 R KB
# Procedure: The studies were acquired according to previous protocols.[41] All the examined compounds (novel and the reference) were dissolved in DMSO (1 mM) and diluted accordingly using the assay buffer, directly in 96-well microplate. The recombinant CHO-K1 cells expressing human GPCR, mitochondrially targeted aequorin, and the promiscuous G protein α16 specific for 5-HT6 were used for the functional assay. The cells were thawed and suspended in the appropriate buffer containing DMEM/HAM’s F12 with 0.1% protease free BSA and were then centrifuged. After adding coelenterazine h to a final concentration of 5 μM, the cell pellet was resuspended in the buffer. The cell suspension was incubated at 16 °C for 16 h while being protected from light, gently shaken, and diluted with assay buffer to a concentration of 5000 cells/mL. Following that, 50 μL of the cell suspension was introduced to preloaded white opaque 96-well microplates containing the tested molecules. This was done using the automatic injectors integrated into the radiometric and luminescence plate counter MicroBeta2 LumiJET (PerkinElmer, USA). The light emission resulting from calcium mobilization was monitored for a duration of 60 s. For examination of the antagonistic properties of tested molecule, following 30 min of incubation, the reference agonist was administrated and the light emission was detected.
# [4] = test system: human α1β2γ2-GABA-A receptors; test: Electrophysiological studies, automated patch clamp (QPatch16X), HEK293 cells; type: cell-based; conditions: agonist mode, compound at 10 μM; current amplitude normalized to 10 μM GABA response; ±S.E.M.
# Procedure: Electrophysiological studies were acquired using the QPatch16X automatic patch clamp platform (Sophion Biosciences) as described before.[42],[43] […] Before the assay, cells were detached from the culture flask by treating them with TrypLE Express solution (Life Technologies) and subsequently suspended in serum-free media. The cells were loaded into a 1.5 mL microtube on the automated electrophysiology instrument, which subsequently performed a spin-down using its built-in centrifuge. Following this, the cells were washed with Ringer’s extracellular solution. The cells were moved to the pipetting wells of a 16-channel planar patch chip plate (QPlate 16X) designed for single-use. A combined suction/voltage protocol was then applied to establish gigaseals. […] During the entire whole-cell recording, the holding potential was maintained at −90 mV. […] The intracellular solution contained 140 mM CsF, 1 mM EGTA, 5 mM CsOH, 10 mM HEPES, 20 mMNaCl (pH 7.2, 320 mOsm). […] The acquired data were examined with QPatch assay software (v5.0, Sophion Biosciences)[44] and are represented as the mean of three separated measurements performed on distinct cells. The efficacy of the tested molecules was determined by calculating the baseline-corrected ratio of the maximum current amplitudes elicited by the tested compounds and the reference agonist (T1-ATG/AG1-ATG or T2-ATG/AG1-ATG). The raw current recordings were standardized and presented as a percentage of the current amplitude evoked by the reference agonist, using the QPatch assay software (v5.0, Sophion Biosciences).
# [5] = test system: female Wistar rats; test: Forced swim test in rats; type: in vivo, rat
# Procedure: (§1) Naïve female Wistar rats (weighing 180–200 g) were used in the study. The animals were housed in groups of three to four in standard Makrolon cages (37 cm × 21 cm × 15 cm) under strictly controlled laboratory conditions (ambient temperature 21–24 °C, relative humidity 45–65%) with a 12/12 h light–dark regime (light on at 6:00 a.m. and off at 6:00 p.m.). Animals had unrestricted access to tap water and food (typical pellets). Prior the experiment the animals were randomly appointed to the group. The behavioral studies were accomplished between 8:00 a.m. and 5:00 p.m. with the researcher blind to the study. The experiments were performed according to protocols approved by the Local Ethical Committee in Krakow (Approval Number 147/2018), Poland. Housing and experimental procedures were conducted under the European Union Directive of September 22, 2010 (2010/63/EU) and Polish legislation regarding animal studies. All efforts were made to minimize animal suffering and the number of animals used in the study.
# (§2) Vortioxetine (Sigma, Germany) and the tested compounds (16 and 6) were dissolved in 10% cyclodextrin and administered ip 30 min before the test or during 14 consecutive days, with the last injection 60 min before the test. 10% cyclodextrin was administrated to control group.
# (§3) A modified forced swim test was carried out according to Detke et al.[50],[51] First, the animals were individually placed inside Plexiglas cylinders, which were 40 cm high and 18 cm in diameter, filled with water at a temperature of 23–25 °C for 15 min. Afterward, the rats were transferred to a Plexiglas box and kept under a 60 W bulb for 30 min to dry. The day after, exactly 24 h later, the rats were once again placed in the cylinder, and their duration of immobility, swimming, and climbing was observed and recorded during a 5 min. The swimming behavior involved energetic movements such as horizontal swimming around the cylinder, while climbing activity referred to upward movements of the forepaws along the swim chamber’s side. Immobility was recorded when the rat only made necessary movements to keep its head above the water. For each test, a fresh water was provided. Open field test in rats: The test was conducted as previously reported by our research group.[52] The test was performed in a darkened room employing the Motor Monitor System (Campden Instruments, Ltd., U.K.). The system was equipped with two SmartFrame Open Field stations, each measuring 40 cm × 40 cm × 38 cm and consisting of 16 × 16 beams. These stations were placed inside sound-attenuating chambers and connected to a PC software using […]. The animals, belonging to either the vehicle-injected or drug-injected group, were individually positioned at the center of the station. The Motor Monitor System, which was automated, recorded the animal’s ambulation in both the X and Y axes, as well as the number of rearing and peeping episodes. Additionally, the total distance traveled by each animal during the 5 min test period was also recorded. Statistical analysis: Results are presented as the mean ± SEM values. They were estimated using one-way analysis of variance (ANOVA), followed by Newman–Keuls post hoc or unpaired two-tailed Student t test. Statistical significance was considered when p < 0.05 for differences between groups.
# [6] = test system: female Wistar rats; test: Open field test in rats (locomotor activity); type: in vivo, rat; parameters: total distance traveled: unit not given here; conditions: chronic treatment, dose 8, ip 14 days
# Procedure: as §1, §2, §3
# [7] = acute, 8 mg/kg ip 30 min before test
# T1 sequence (P50406 whole entry): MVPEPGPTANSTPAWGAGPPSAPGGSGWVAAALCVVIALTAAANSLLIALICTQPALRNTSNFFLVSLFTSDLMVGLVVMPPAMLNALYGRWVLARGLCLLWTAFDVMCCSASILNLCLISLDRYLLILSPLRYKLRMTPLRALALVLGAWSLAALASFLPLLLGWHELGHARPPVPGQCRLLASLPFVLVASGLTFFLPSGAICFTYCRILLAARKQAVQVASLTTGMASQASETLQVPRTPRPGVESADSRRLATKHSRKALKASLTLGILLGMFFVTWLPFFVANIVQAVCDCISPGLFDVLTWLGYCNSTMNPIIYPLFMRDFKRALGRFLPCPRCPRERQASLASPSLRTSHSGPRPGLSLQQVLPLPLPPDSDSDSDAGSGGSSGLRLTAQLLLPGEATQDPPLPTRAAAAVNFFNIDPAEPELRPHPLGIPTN
Structure (SMILES),Ki ([1]; 5-HT6R Ki) [nM],Ki ([1]; read-out: 5-HT6R Ki) [nM],Ki [2] [nM],Kb [3] [nM],also measured
"O=c1[nH]c2c(N3CCNCC3)cccc2n1Cc1ccccc1 [Compound 2, 1-benzyl-4-(piperazin-1-yl)-1,3-dihydro-2H-benzo[d]imidazol-2-one]",0.2 ± 0.02,,,,
"O=c1oc2c(N3CCNCC3)cccc2n1Cc1ccccc1 [Compound 3, 3-Benzyl-7-(piperazin-1-yl)benzo[d]oxazol-2(3H)-one]",4 ± 0.2,,,,
"O=C1COc2c(N3CCNCC3)cccc2N1Cc1ccccc1 [Compound 4, 4-benzyl-8-(piperazin-1-yl)-2H-benzo[b][1,4]oxazin-3(4H)-one]",1 ± 0.2,,,,
"c1ccc(CN2CCOc3c(N4CCNCC4)cccc32)cc1 [Compound 5, 4-(4-Benzyl-3,4-dihydro-2H-benzo[b][1,4]oxazin-8-yl)piperazin-1-ium Chloride]",60 ± 7.5,,,,
"O=c1[nH]c2c(N3CCN(CCO)CC3)cccc2n1Cc1ccccc1 [Compound 7, 1-Benzyl-4-(4-(2-hydroxyethyl)piperazin-1-yl)-1,3-dihydro-2H-benzo[d]imidazol-2-one]",,40 ± 3,,,
"O=c1oc2c(N3CCN(CCO)CC3)cccc2n1Cc1ccccc1 [Compound 8, 3-Benzyl-7-(4-(2-hydroxyethyl)piperazin-1-yl)benzo[d]oxazol-2(3H)-one]",,150 ± 7.6,,,
"O=C1COc2c(N3CCN(CCO)CC3)cccc2N1Cc1ccccc1 [Compound 9, 4-Benzyl-8-(4-(2-hydroxyethyl)piperazin-1-yl)-2H-benzo[b][1,4]oxazin-3(4H)-one]",,4 ± 0.4,,,
"OCCN1CCN(c2cccc3c2OCCN3Cc2ccccc2)CC1 [Compound 10, 2-(4-(4-Benzyl-3,4-dihydro-2H-benzo[b][1,4]oxazin-8-yl)piperazin-1-yl)ethan-1-ol]",,24 ± 2,,,
"NCCCC(=O)OCCN1CCN(c2cccc3c2[nH]c(=O)n3Cc2ccccc2)CC1 [Compound 17, 1-(2-((4-Ammoniobutanoyl)oxy)ethyl)-4-(1-benzyl-2-oxo-2,3-dihydro-1H-benzo[d]imidazol-4-yl)piperazin-1-ium Dichloride]",,57 ± 5.9,592 ± 52.5,193 ± 3.5,
"Cl.Cl.NCCCC(=O)OCCN1CCN(c2cccc3c2oc(=O)n3Cc2ccccc2)CC1 [Compound 18, 1-(2-((4-Ammoniobutanoyl)oxy)ethyl)-4-(3-benzyl-2-oxo-2,3-dihydrobenzo[d]oxazol-7-yl)piperazin-1-ium Dichloride]",,130 ± 12,229 ± 28,245 ± 0.7,[%] of 10 μM GABA activity [4]: 14.0% and 14.0 ± 2.6%
"Cl.Cl.NCCCC(=O)OCCN1CCN(c2cccc3c2OCC(=O)N3Cc2ccccc2)CC1 [Compound 19, 1-(2-((4-Ammoniobutanoyl)oxy)ethyl)-4-(4-benzyl-3-oxo-3,4-dihydro-2H-benzo[b][1,4]oxazin-8-yl)piperazin-1-ium Dichloride]",,25 ± 1,247 ± 24.7,7 ± 0.1,[%] of 10 μM GABA activity [4]: 9.5% and 9.5 ± 3.5%; fold higher 5-HT6 affinity compared to 18 ([1]; ratio of Ki values): 5 fold
"NCCCC(=O)OCCN1CCN(c2cccc3c2OCCN3Cc2ccccc2)CC1 [Compound 20, 1-(2-((4-Ammoniobutanoyl)oxy)ethyl)-4-(4-benzyl-3,4-dihydro-2H-benzo[b][1,4]oxazin-8-yl)piperazin-1-ium Dichloride]",,1260 ± 82,184 ± 4,1670 ± 1,
"Cc1ccc(Sc2ccccc2N2CCNCC2)c(C)c1 [vortioxetine, Vortioxetine, reference compound]",,,,,"climbing [5, 7]: had no impact; prolongation of swimming time [5, 7]: 88.1%; reduction of immobility time [5, 7]: 24.7%; decrease of immobility time vs vehicle-treated group ([5]; subchronic, 8 mg/kg ip for 14 days, test 60 min after last injection): 19.5%; X ambulation [6]: 260.1; Y ambulation [6]: 265.9; rearing [6]: 50.6; total distance traveled [6]: 2753"
